Drawing on US8377943B2, “2,4-diaminopyrimidine derivates as PTK2-inhibitors for the treatment of abnormal cell growth” (Boehringer Ingelheim International GmbH, priority 2008, dated 2013), this text covers EC50 and IC50 for 33 compounds.

In assay [1] the target is T1, PTK2-phosphorylation at tyrosine 397 (pY397) (Homo sapiens, UniProt Q05397).
T1 construct: endogenous in cells; host or cells: PC-3 (ATCC CRL-1435)
In words: Phospho-PTK2 (pY397) Assay in PC-3 cells. In kind it is cell-based. The note with it: PC-3 prostate carcinoma cells, 2 h incubation; read-out: PC3pPTK2 Y397 EC50. Summed up: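 PC-3 cells (2×10^4/well, F12K + 10% FCS) exposed to compound (about 0.8 nM–50 μM, 1% DMSO final) for 2 h at 37 °C. Then formaldehyde-fixed and immunostained with anti-pY397 PTK2 (total PTK2 control) and an HRP secondary. EC50 from sigmoidal fit with variable Hill slope.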

For another assay, the target named is T2, PTK2 (Homo sapiens, UniProt Q05397).
T2 construct: purchased Invitrogen PV3832
In words: PTK2 Enzyme Test (DELFIA assay, poly-Glu-Tyr substrate). The format is biochemical. The note with it: active PTK2 enzyme, 50 μM ATP in ATP Mix, 1 h pre-incubation. Summed up:
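Active PTK2 (0.01 μg/well) pre-incubated 1 h at RT with compound, then reacted 1 h with 50 μM ATP (in ATP mix) and poly(Glu,Tyr) 4:1 substrate, 2% DMSO final, pH 7.5. Biotinylated product captured on streptavidin, detected by Eu-PY20 time-resolved fluorescence; IC50 by sigmoidal fit, variable Hill slope.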

T2 sequence (Q05397 whole entry): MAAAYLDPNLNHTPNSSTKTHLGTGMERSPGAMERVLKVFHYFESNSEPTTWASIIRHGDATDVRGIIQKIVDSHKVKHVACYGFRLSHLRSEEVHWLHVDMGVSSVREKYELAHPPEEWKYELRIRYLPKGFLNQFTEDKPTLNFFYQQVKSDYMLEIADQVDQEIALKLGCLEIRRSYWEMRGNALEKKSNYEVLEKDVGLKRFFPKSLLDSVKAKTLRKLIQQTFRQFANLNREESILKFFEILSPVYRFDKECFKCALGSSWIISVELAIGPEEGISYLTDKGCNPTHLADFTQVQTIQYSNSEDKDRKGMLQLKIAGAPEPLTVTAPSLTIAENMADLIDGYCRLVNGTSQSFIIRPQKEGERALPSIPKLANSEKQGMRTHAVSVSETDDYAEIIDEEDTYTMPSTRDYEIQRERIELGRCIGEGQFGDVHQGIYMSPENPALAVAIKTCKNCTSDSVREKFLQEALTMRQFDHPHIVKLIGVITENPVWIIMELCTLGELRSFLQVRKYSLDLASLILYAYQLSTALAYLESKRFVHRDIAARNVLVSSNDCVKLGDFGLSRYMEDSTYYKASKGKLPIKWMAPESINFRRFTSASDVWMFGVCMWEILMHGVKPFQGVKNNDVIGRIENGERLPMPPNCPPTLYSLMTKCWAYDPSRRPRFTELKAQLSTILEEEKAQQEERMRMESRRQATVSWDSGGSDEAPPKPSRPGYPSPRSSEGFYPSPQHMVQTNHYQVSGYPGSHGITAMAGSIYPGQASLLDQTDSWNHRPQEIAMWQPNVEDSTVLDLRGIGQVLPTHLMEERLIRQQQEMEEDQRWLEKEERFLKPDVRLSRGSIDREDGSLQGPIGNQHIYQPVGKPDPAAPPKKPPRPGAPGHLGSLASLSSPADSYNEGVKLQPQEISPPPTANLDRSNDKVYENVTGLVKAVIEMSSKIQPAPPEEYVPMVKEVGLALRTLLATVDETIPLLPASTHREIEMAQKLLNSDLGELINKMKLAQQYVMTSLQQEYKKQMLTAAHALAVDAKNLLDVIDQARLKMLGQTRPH
T1 sequence (Q05397 whole entry): as above

The EC50 is the concentration giving half of the maximal effect. For orientation: IC50 means the concentration at which inhibition is half-maximal. For `COc1cc(CNC2CC2)ccc1Nc1ncc(C(F)(F)F)c(NCc2ccc(C)cc2N(C)S(C)(=O)=O)n1` [Example 72], in assay [1], the EC50 is 0.75 nM. Further, half-maximal inhibition at PTK2 (IC50) was put at 3 nM.
With `COc1cc(C(=O)NC2CCN(C)CC2)ccc1Nc1ncc(C(F)(F)F)c(NCc2ccc(C)cc2N(C)S(C)(=O)=O)n1` [Example 73, 4-{4-[2-(methanesulphonyl-methyl-amino)-4-methyl-benzylamino]-5-trifluoromethyl-pyrimidin-2-ylamino}-3-methoxy-N-(1-methyl-piperidin-4-yl)-benzamide], the EC50 in assay [1] worked out at 0.77 nM. This compound also gave an IC50 at PTK2 of 1 nM.
Taken in the same sequence, the figures for `COc1cc(C(=O)N[C@@H]2CN3CCC2CC3)ccc1Nc1ncc(C(F)(F)F)c(NCc2ccc(C)cc2N(C)S(C)(=O)=O)n1` [Example 74] were 0.8 nM and 3 nM.
For the compound `COc1cc(N2CCN(C(C)C)CC2)ccc1Nc1ncc(C(F)(F)F)c(NCc2ccc(F)cc2N(C)S(C)(=O)=O)n1` [Example 75], the EC50 in assay [1] came out at 0.84 nM. On PTK2, this compound gave an IC50 of 1 nM.
For `COc1cc(C(=O)N[C@H]2CC[C@H](N3CCOCC3)CC2)ccc1Nc1ncc(C(F)(F)F)c(NCc2ccc(C)cc2N(C)S(C)(=O)=O)n1` [Example 76], the EC50 in assay [1] was found to be 0.88 nM. The same compound returned an IC50 against PTK2 of 2 nM.
Consider `COc1cc(C(=O)NC2CCN(C)CC2)c(Cl)cc1Nc1ncc(C(F)(F)F)c(NCc2ccc(C)cc2N(C)S(C)(=O)=O)n1` [Example 78], for which, in assay [1], the EC50 is 0.93 nM. Further, on PTK2, inhibition was half-maximal at 4 nM (IC50).
As to `COc1cc(N2CCN(C)CC2)ccc1Nc1ncc(C(F)(F)F)c(NCc2ccc(C)cc2N(C)S(C)(=O)=O)n1` [Example 79], the EC50 in assay [1] is 1 nM. Besides, inhibition on PTK2 was half-maximal at 2 nM (IC50).
Consider `Cc1ccc(CNc2nc(Nc3ccc(C(=O)NC4CCN(C)CC4)cc3C)ncc2C(F)(F)F)c(N(C)S(C)(=O)=O)c1` [Example 80], for which the EC50 in assay [1] came out at 1 nM. Besides, the IC50 against PTK2 was determined as 0.98 nM.
In the case of `CNC(=O)c1ccc(Nc2ncc(C(F)(F)F)c(NCc3ccc(OC)cc3N(C)S(C)(=O)=O)n2)c(OC)c1` [Example 81], the EC50 in assay [1] is 1 nM. Further, on PTK2, the midpoint of inhibition, the IC50, lay at 1 nM.
As to `COc1cc(N2CCN(CC(=O)N(C)C)CC2)ccc1Nc1ncc(C(F)(F)F)c(NCc2ccc(F)cc2N(C)S(C)(=O)=O)n1` [Example 82], in assay [1], the EC50 stood at 1 nM. The compound further gave an IC50 against PTK2 of 2 nM.
As for `COc1cc(C(=O)NC2CCNCC2)ccc1Nc1ncc(C(F)(F)F)c(NCc2ccc(C)cc2N(C)S(C)(=O)=O)n1` [Example 83], the EC50 in assay [1] turned out to be 1 nM. In addition, at PTK2, it took 2 nM to reach half-maximal inhibition (IC50).
`COc1cc(C(=O)NC2CCC(N3CCOCC3)CC2)c(C)cc1Nc1ncc(C(F)(F)F)c(NCc2ccc(C)cc2N(C)S(C)(=O)=O)n1` (stereo not drawn) [Example 84]: the EC50 in assay [1] was 1 nM. The IC50 at PTK2 was determined as 3 nM.
As for `COc1cc(C(=O)N[C@@H]2CCCN(CC3CC3)C2)ccc1Nc1ncc(C(F)(F)F)c(NCc2ccc(C)cc2N(C)S(C)(=O)=O)n1` [Example 85], the EC50 in assay [1] stood at 1 nM. In addition, on PTK2, the IC50 is 3 nM.
For `COc1cc(C(=O)N[C@@H]2CCCN(C3CCC3)C2)ccc1Nc1ncc(C(F)(F)F)c(NCc2ccc(C)cc2N(C)S(C)(=O)=O)n1` [Example 86], the EC50 in assay [1] came out at 1 nM. This compound also displayed a half-maximal inhibitory concentration (IC50) against PTK2 of 3 nM.
As for `COc1ccc(CNc2nc(Nc3ccc(NC(C)=O)c(OC)c3)ncc2C(F)(F)F)c(N(C)S(C)(=O)=O)c1` [Example 87], the EC50 in assay [1] was 1 nM. The compound further came in with an IC50 against PTK2 of 1 nM.
In the case of `COc1cc(CNCCN(C)C)ccc1Nc1ncc(C(F)(F)F)c(NCc2ccc(C)cc2N(C)S(C)(=O)=O)n1` [Example 88], the EC50 in assay [1] is 1 nM. Moreover, on PTK2, half-maximal inhibition (IC50) required 4 nM.
For the compound `COc1cc(CNC(C)C)ccc1Nc1ncc(C(F)(F)F)c(NCc2ccc(C)cc2N(C)S(C)(=O)=O)n1` [Example 89], the EC50 in assay [1] is 1 nM. Also, on PTK2, it took 2 nM to reach half-maximal inhibition (IC50).
With `COc1cc(C(=O)NC2CCN(C)CC2)c(F)cc1Nc1ncc(C(F)(F)F)c(NCc2ccc(Cl)cc2N(C)S(C)(=O)=O)n1` [Example 90], in assay [1], the EC50 was 2 nM. On PTK2, this compound came in with an IC50 of 1 nM.
Turning to `Cc1ccc(CNc2nc(Nc3ccc(C(=O)N[C@H]4CC[C@H](N5CCN(CC6CC6)CC5)CC4)cc3F)ncc2C(F)(F)F)c(N(C)S(C)(=O)=O)c1` [Example 91], the EC50 in assay [1] is 2 nM. At PTK2, this compound returned an IC50 of 3 nM.
The like results for `Cc1ccc(CNc2nc(Nc3ccc(C(=O)N[C@H]4CC[C@H](N5CCOCC5)CC4)cc3F)ncc2C(F)(F)F)c(N(C)S(C)(=O)=O)c1` [Example 92] were, in that order, 2 nM and 1 nM.
The like results for `COc1cc(C(=O)NC2CCN(C3COC3)CC2)c(F)cc1Nc1ncc(C(F)(F)F)c(NCc2ccc(C)cc2N(C)S(C)(=O)=O)n1` [Example 93] were, in that order, 2 nM and 5 nM.
Taken in the same sequence, the figures for `COc1cc(C(=O)NC2CCN(C3CCOCC3)CC2)ccc1Nc1ncc(C(F)(F)F)c(NCc2ccc(Cl)cc2N(C)S(C)(=O)=O)n1` [Example 94] were 2 nM and 2 nM.
Turning to `COc1cc(C(=O)N[C@H]2CC[C@H](N3CCN(CC4CC4)CC3)CC2)ccc1Nc1ncc(C(F)(F)F)c(NCc2ccc(C)cc2N(C)S(C)(=O)=O)n1` [Example 95], the EC50 in assay [1] came to 2 nM. Further, half-maximal inhibition at PTK2 (IC50) required 3 nM.
The like results for `COc1cc(C(=O)NC2CC(N3CCN(CC4CC4)CC3)C2)ccc1Nc1ncc(C(F)(F)F)c(NCc2ccc(C)cc2N(C)S(C)(=O)=O)n1` (stereo not drawn) [Example 97] were, in that order, 2 nM and 3 nM.
Taken in the same sequence, the figures for `COc1cc(N2CCN(C3COC3)CC2)ccc1Nc1ncc(C(F)(F)F)c(NCc2ccc(F)cc2N(C)S(C)(=O)=O)n1` [Example 98] were 2 nM and 3 nM.
As to `COc1cc(N2CCN(C)CC2)ccc1Nc1ncc(C(F)(F)F)c(NCc2ccc(F)cc2N(C)S(C)(=O)=O)n1` [Example 99], the 50% effective concentration (EC50) in assay [1] was determined as 2 nM. The compound further displayed an IC50 against PTK2 of 1 nM.
As for `COc1cc(C(=O)NC2CCN(C)CC2)c(C)cc1Nc1ncc(C(F)(F)F)c(NCc2ccc(C)cc2N(C)S(C)(=O)=O)n1` [Example 100], in assay [1], the EC50 is 2 nM. This compound also registered an IC50 against PTK2 of 1 nM.
Regarding `CCc1cc(C(=O)NC2CCN(CC)CC2)ccc1Nc1ncc(C(F)(F)F)c(NCc2ccc(C)cc2N(C)S(C)(=O)=O)n1` [Example 101], the 50% effective concentration (EC50) in assay [1] stood at 2 nM. In addition, on PTK2, the midpoint of inhibition, the IC50, lay at 2 nM.
Regarding `COc1cc(C(=O)N[C@@H]2CCCN(C)C2)ccc1Nc1ncc(C(F)(F)F)c(NCc2ccc(C)cc2N(C)S(C)(=O)=O)n1` [Example 102], the EC50 in assay [1] is 2 nM. The same compound gave an IC50 on PTK2 of 2 nM.
For `COc1cc(Nc2ncc(C(F)(F)F)c(NCc3ccc(C)cc3N(C)S(C)(=O)=O)n2)ccc1NC(C)=O` [Example 103], the EC50 in assay [1] came to 2 nM. Moreover, the IC50 against PTK2 came out at 0.8 nM.
The like results for `CC(=O)Nc1ccc(Nc2ncc(C(F)(F)F)c(NCc3ccc(C)cc3N(C)S(C)(=O)=O)n2)cc1Cl` [Example 104] were, in that order, 2 nM and 2 nM.
Taken in the same sequence, the figures for `COc1ccc(CNc2nc(Nc3ccc(NC(C)=O)c(Cl)c3)ncc2C(F)(F)F)c(N(C)S(C)(=O)=O)c1` [Example 105] were 2 nM and 2 nM.
With `COc1cc(C(=O)N[C@@H]2CCN(C)C[C@@H]2F)ccc1Nc1ncc(C(F)(F)F)c(NCc2ccc(C)cc2N(C)S(C)(=O)=O)n1` [Example 106], the EC50 in assay [1] came to 2 nM. Besides, at PTK2, the IC50 is 4 nM.
